Results taken from PMC11605732, “In vitro screening of UGT2B10 in silico prioritized putative ligands from drugs used in the pediatric hematopoietic stem cell transplantation setting” (Pharmacology Research & Perspectives, 2024).
Read-outs that look alike come from different tables or passages of the source.

Legend:
[1] = target: T1, UGT2B10 (Homo sapiens, UniProt P36537); experiment: inhibition of cotinine N-glucuronidation at […], UHPLC-MS/MS; type: biochemical; conditions: read-out: % inhibition at 10 μM
T1 construct: recombinant UGT2B10
T1 sequence (P36537 24-528): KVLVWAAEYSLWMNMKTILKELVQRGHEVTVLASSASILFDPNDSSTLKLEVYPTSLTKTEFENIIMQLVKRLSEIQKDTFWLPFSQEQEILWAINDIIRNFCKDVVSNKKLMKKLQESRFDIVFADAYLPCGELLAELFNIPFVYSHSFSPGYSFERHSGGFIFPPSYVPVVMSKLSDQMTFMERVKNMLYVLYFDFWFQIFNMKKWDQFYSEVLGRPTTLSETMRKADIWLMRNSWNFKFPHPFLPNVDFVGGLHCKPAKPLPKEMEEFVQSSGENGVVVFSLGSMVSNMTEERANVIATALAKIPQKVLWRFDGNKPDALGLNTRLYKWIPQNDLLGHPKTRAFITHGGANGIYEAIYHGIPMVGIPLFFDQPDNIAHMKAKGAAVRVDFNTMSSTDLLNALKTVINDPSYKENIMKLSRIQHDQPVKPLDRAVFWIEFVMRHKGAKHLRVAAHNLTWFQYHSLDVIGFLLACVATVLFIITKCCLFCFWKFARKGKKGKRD

[2] = target: T2, UGT1A6 (Homo sapiens, UniProt P19224); experiment: glucuronide formation by recombinant enzyme, UHPLC-MS/MS; type: biochemical
T2 construct: recombinant UGT1A6
T2 sequence (P19224 27-532): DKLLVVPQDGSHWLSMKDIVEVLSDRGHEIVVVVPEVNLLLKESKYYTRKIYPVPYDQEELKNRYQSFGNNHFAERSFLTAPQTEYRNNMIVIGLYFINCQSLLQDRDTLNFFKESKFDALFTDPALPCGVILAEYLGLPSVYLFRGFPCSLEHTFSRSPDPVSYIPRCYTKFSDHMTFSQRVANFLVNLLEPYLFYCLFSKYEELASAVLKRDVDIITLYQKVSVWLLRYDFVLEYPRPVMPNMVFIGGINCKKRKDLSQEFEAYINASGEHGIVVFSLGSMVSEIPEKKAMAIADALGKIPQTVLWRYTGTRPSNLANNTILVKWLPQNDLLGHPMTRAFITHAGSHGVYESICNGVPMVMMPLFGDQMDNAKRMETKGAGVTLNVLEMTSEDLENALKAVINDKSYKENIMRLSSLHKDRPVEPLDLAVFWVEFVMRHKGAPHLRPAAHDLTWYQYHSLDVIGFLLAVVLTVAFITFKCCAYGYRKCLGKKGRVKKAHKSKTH

[3] = target: T1, UGT2B10; experiment: inhibition of cotinine N-glucuronidation by recombinant enzyme, UHPLC-MS/MS; type: biochemical
[4] = substrate: CN1C(=O)CC[C@H]1c1cccnc1; experiment: purified protein; conditions: UDPGA; MgCl2

CN(C)CCC=C1c2ccccc2CCc2ccccc21 [AMT, amitriptyline] showed an inhibition at 10 µM [1] of 97.5%.

In the case of CC(=O)Nc1ccc(O)cc1 [APAP, acetaminophen], the “glucuronide formation by recombinant enzyme, UHPLC-MS/MS” value [2] is reported as “incubations of APAP and MPA with UGT1A6 produced APAP‐glucuronide and MPA‐ß‐D‐glucuronide, respectively”.

In the case of O=C1Nc2ccc(Cl)cc2C(c2ccccc2Cl)=NC1O (stereo not drawn) [LOR, lorazepam], the IC50 [3] is reported as 0.01 µM.

For COc1c(C)c2c(c(O)c1C/C=C(\C)CCC(=O)O)C(=O)OC2 [MPA, mycophenolic acid], the “glucuronide formation by recombinant enzyme, UHPLC-MS/MS” value [2] was “incubations of APAP and MPA with UGT1A6 produced APAP‐glucuronide and MPA‐ß‐D‐glucuronide, respectively” and the IC50 ([3]; read-out: IC50) was 380 µM.

B1: UGT2B10 (Homo sapiens) (protein)
chain: T1 sequence (P36537 24-528)
B1 showed a Km [4] of 4.043 mM.
